Data published in paper PMC7044277 (Nature Communications, 2020).
Values joined by “and” are separate entries in the source; they are usually repeats but may differ in a detail not shown here. Equal values may be shown once.

Legend:
DRD1 = DRD1 (Homo sapiens, UniProt P21728); test: β-arrestin2 recruitment (Tango); type: cell-based; conditions: agonist mode
DRD5 = DRD5 (Homo sapiens, UniProt P21918); test: β-arrestin2 recruitment (Tango); type: cell-based; conditions: Fig_S10e, single replicates
Chain of DRD5 (P21918 whole entry): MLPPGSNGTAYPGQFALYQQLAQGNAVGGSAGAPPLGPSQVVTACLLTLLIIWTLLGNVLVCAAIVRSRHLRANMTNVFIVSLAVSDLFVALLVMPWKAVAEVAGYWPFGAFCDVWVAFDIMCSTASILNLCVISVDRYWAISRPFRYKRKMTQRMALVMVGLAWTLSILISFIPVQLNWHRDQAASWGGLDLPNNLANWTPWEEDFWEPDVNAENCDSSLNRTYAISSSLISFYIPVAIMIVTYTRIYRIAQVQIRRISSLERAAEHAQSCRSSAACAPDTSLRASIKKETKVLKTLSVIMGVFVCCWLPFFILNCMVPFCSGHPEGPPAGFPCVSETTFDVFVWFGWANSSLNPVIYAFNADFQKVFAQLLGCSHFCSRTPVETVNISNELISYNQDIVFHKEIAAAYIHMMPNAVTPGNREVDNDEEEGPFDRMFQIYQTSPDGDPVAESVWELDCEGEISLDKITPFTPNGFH

Chain of DRD1 (P21728 whole entry): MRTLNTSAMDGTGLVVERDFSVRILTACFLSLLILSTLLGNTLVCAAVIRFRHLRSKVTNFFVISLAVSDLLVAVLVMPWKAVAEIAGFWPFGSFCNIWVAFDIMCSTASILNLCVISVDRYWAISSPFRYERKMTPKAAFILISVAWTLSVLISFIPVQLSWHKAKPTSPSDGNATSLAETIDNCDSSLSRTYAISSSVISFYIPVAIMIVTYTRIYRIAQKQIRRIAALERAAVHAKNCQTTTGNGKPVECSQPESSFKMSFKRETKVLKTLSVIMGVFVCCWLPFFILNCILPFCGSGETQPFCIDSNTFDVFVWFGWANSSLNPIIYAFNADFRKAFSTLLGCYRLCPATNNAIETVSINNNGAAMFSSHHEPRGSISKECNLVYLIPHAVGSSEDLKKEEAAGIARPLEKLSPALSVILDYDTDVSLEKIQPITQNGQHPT

Fig_S10d concentration-response source data, compound alone (replicates) (DRD1; Log[Drug] -6.52): 10.0073
Compound: Oc1ccc2c(c1O)Oc1cccc3c1C2CNC3 (stereo not drawn) [dinoxyline]
Fig_S10d concentration-response source data, compound alone (replicates) (DRD1; Log[Drug] -7): 4.307 and 1.205 and 1.227 and 4.484 and 2.979 and 2.557 and 2.04 and -0.1301 and 1.092
Fig_S10d concentration-response source data, compound alone (replicates) (DRD1; Log[Drug] -7.52): 1.579 and 3.303 and 0.5491 and 3.089 and 1.082 and 1.378 and -0.7612 and -0.8315 and -0.809
Fig_S10d concentration-response source data, compound alone (replicates) (DRD1; Log[Drug] -8): 1.257 and 1.231 and 1.566 and 0.913 and 0.3538 and 0.1991 and -0.676 and -1.057 and 0.2893
Fig_S10d concentration-response source data, compound alone (replicates) (DRD1; Log[Drug] -8.52): 0.2231 and 2.08 and 8.446 and 0.2359 and 0.07888 and 0.01718 and -0.4841 and -1.204 and -0.2743
Fig_S10d concentration-response source data, compound alone (replicates) (DRD1; Log[Drug] -9): 0.9179 and 0.03861 and 0.7078 and 0.082 and -0.04373 and 0.0164 and -1.424 and -1.237 and -0.4972
Fig_S10d concentration-response source data, compound alone (replicates) (DRD1; Log[Drug] -9.52): 0.9179 and 1.428 and 0.9008 and 0.3038 and -0.1367 and -0.264 and -0.706 and -1.205 and -0.04775
Fig_S10d concentration-response source data, compound alone (replicates) (DRD1; Log[Drug] -10): -0.2788 and -0.1244 and 1.737 and -0.3538 and -0.2647 and 0.1437 and -1.4279 and -0.8642 and -0.7996
Fig_S10d concentration-response source data, compound alone (replicates) (DRD1; Log[Drug] -10.52): -0.2788 and 0.2273 and 1.767 and 0.02109 and 0.9895 and -0.1132 and 0.1507 and -0.4242 and -0.1601
Fig_S10d concentration-response source data, compound alone (replicates) (DRD1; Log[Drug] -11): 0.5834 and 0.2231 and 0.5491 and -0.5092 and -0.2671 and 0.4842 and -1.071 and -0.647 and 0.1395
Fig_S10d concentration-response source data, compound alone (replicates) (DRD1; Log[Drug] -11.52): -0.1115 and 1.072 and 4.68 and 0.05545 and 0.239 and 0.3608 and 3.618 and -0.7331 and -0.985
Fig_S10d concentration-response source data, compound alone (replicates) (DRD1; Log[Drug] -12): -0.2702 and -0.1115 and 0.3903 and -0.474 and -0.4764 and -0.3218 and 3.0206 and -0.9897 and -0.8633
β-arrestin2 recruitment response, agonist mode (normalized) (DRD5; Log[Drug] -6.52): 50.9959 and 44.5818 and 81.7753 and 73.11 and 53.8362
β-arrestin2 recruitment response, agonist mode (normalized) (DRD5; Log[Drug] -7): 44.4286 and 33.2805 and 57.3924 and 47.0403 and 55.7358 and 61.3062 and 41.0525 and 43.6565
β-arrestin2 recruitment response, agonist mode (normalized) (DRD5; Log[Drug] -7.52): 33.6662 and 25.4134 and 56.8006 and 39.9881 and 23.8046 and 44.1458 and 17.6483 and 11.4811
β-arrestin2 recruitment response, agonist mode (normalized) (DRD5; Log[Drug] -8): 7.481 and 4.412 and 28.4866 and 15.182 and 15.3449 and 6.879 and 1.575 and 2.947
β-arrestin2 recruitment response, agonist mode (normalized) (DRD5; Log[Drug] -8.52): 7.423 and 8.3056 and 10.7658 and 9.092 and 10.1938 and 2.126 and 2.041 and 8.64
β-arrestin2 recruitment response, agonist mode (normalized) (DRD5; Log[Drug] -9): 0.5231 and -1.384 and 1.379 and 3.9644 and 2.988 and 7.407 and -1.292 and -1.934 and 0.3332
β-arrestin2 recruitment response, agonist mode (normalized) (DRD5; Log[Drug] -9.52): 0.9986 and 0.1427 and 0.1268 and 2.609 and 1.523 and 1.227 and -2.233 and -1.075 and -0.4405
β-arrestin2 recruitment response, agonist mode (normalized) (DRD5; Log[Drug] -10): -2.61 and -1.543 and -0.2906 and 1.406 and 1.213 and 1.593 and -1.565 and -1.034 and 0.3624
β-arrestin2 recruitment response, agonist mode (normalized) (DRD5; Log[Drug] -10.52): 3.973 and -1.363 and 0.9616 and 3.254 and 1.908 and 2.385 and -0.2872 and 0.4781 and -0.9479
β-arrestin2 recruitment response, agonist mode (normalized) (DRD5; Log[Drug] -11): -1.141 and 0.9563 and 6.05 and 0.4043 and -0.1448 and 1 and -1.291 and -1.255 and 0.5855
β-arrestin2 recruitment response, agonist mode (normalized) (DRD5; Log[Drug] -11.52): 0.7872 and 1.828 and -1.791 and 1.074 and 2.305 and 1.525 and -1.001 and -2.087 and -0.1993
β-arrestin2 recruitment response, agonist mode (normalized) (DRD5; Log[Drug] -12): -1.5322 and -0.4861 and -0.05283 and -0.02136 and -0.01028 and 2.843 and -2.166 and -0.9521 and 0.6036
